US9447039B2, “Indole carboxamide derivatives and uses thereof” (priority 2012, dated 2016)
Values after ≈ are worked out from the molar mass of the structure shown.

Test system: Mycobacterium tuberculosis H37Rv (ATCC #27294)
Test: Minimum Inhibitory Concentration (MIC50) determination
Type: cell-based
Conditions: 120 h
Protocol: Mycobacterium tuberculosis H37Rv (ATCC #27294) (Mtb) strain was maintained in Middlebrook 7H9 broth medium supplemented with 0.05% Tween 80 and 10% ADS supplement. ADS supplement contains 5% bovine serum albumin fraction V. 2% D-dextrose and 0.8% of sodium chloride. Middlebrook 7H11 agar medium supplemented with 10% OADC (oleic acid, albumin, dextrose and catalase) was used as solid media for growing Mtb. Stock solutions of the compounds were prepared using 90% DMSO.
Minimum Inhibitory Concentration (MIC50) Determination
In Table 5 below, MIC50 is defined as the lowest concentration of the compound that inhibited 50% growth of the wild type strain compared to untreated controls. Test compounds were two or three fold serially diluted in duplicates and spotted by mosquito HTS to 384-well clear plates, resulting in 10 dilutions of each compound. A volume of 50 μl of Mtb culture (final OD600 of 0.02) was added to each well, and the assay plates were incubated at 37° C. for 5 days. Growth of bacteria was measured by reading absorbance at 600 nm using a Spectramax M2 spectrophotometer. MIC50 values were determined by using Activity Base software.

`N#Cc1ccc2cc(C(=O)NC3CCC(F)(F)CC3)[nH]c2c1` [Example 4AG, 6-Cyano-N-(4,4-difluorocyclohexyl)-1H-indole-2-carboxamide] was tested, and the MIC50 was 3.36 µM (≈ 1.02 µg/mL).
Compound `CCC(C)NC(=O)c1cc2c(C)cc(C)cc2[nH]1` (centres unmarked) [Example 3M, N-(sec-Butyl)-4,6-dimethyl-1H-indole-2-carboxamide] has an MIC50 of 9.33 µM (≈ 2.28 µg/mL).
`Cc1ccc2[nH]c(C(=O)NC3CCCCC3)c(C)c2c1` [Example 4BD, N-cyclohexyl-3,5-dimethyl-1H-indole-2-carboxamide] showed an MIC50 of 3.51 µM (≈ 0.949 µg/mL).
For `COc1cc2cc(C(=O)N[C@@H]3CCCC[C@@H]3C)[nH]c2cc1OC` [Example 4AQ, 5,6-Dimethoxy-N-((1R,2S)-2-methylcyclohexyl)-1H-indole-2-carboxamide], the MIC50 was 19.5 µM (≈ 6.17 µg/mL).
With `CC1CCC(NC(=O)c2cc3c(Cl)cc(Cl)cc3[nH]2)CC1` (centres unmarked) [Example 4G, 4,6-Dichloro-N-(4-methylcyclohexyl)-1H-indole-2-carboxamide] the MIC50 was 0.057 µM (≈ 0.0185 µg/mL).
Compound `Cc1ccc2cc(C(=O)N[C@@H]3CCCC[C@@H]3C)[nH]c2c1` [Example 4Z, 6-Methyl-N-((1R,2S)-2-methylcyclohexyl)-1H-indole-2-carboxamide] has an MIC50 of 0.36 µM (≈ 0.0973 µg/mL).
For `Cc1cc(C)c2cc(C(=O)N[C@H]3CCC[C@H](C)[C@H]3C)[nH]c2c1` [Example 4E, N-((1S,2R,3S)-2,3-Dimethylcyclohexyl)-4,6-dimethyl-1H-indole-2-carboxamide], the MIC50 was 0.08 µM (≈ 0.0239 µg/mL).
`C[C@H]1CCCC[C@H]1NC(=O)c1cc2c(C(F)(F)F)cc(C(F)(F)F)cc2[nH]1` [Example 4BC, N-((1R,2S)-2-Methylcyclohexyl)-4,6-bis(trifluoromethyl)-1H-indole-2-carboxamide] was tested, and the MIC50 was 1.6 µM (≈ 0.628 µg/mL).
For `Cc1cc(N2CCOCC2)cc2[nH]c(C(=O)N[C@@H]3CCCC[C@@H]3C)cc12` [Example 6B, 4-Methyl-N-((1R,2S)-2-methylcyclohexyl)-6-morpholino-1H-indole-2-carboxamide], the MIC50 was 14.2 µM (≈ 5.07 µg/mL).
With `CC1CCC(NC(=O)c2cc3c(C(F)(F)F)cc(C(F)(F)F)cc3[nH]2)CC1` (centres unmarked) [Example 4H, N-(4-Methylcyclohexyl)-4,6-bis(trifluoromethyl)-1H-indole-2-carboxamide] the MIC50 was 0.32 µM (≈ 0.126 µg/mL).
Work on `Cc1cc(Nc2ccccc2)cc2[nH]c(C(=O)N[C@@H]3CCCC[C@@H]3C)cc12` [Example 6A, 4-methyl-N-((1R,2S)-2-methylcyclohexyl)-6-(phenylamino)-1H-indole-2-carboxamide] yielded an MIC50 of 0.145 µM (≈ 0.0524 µg/mL).
For `C[C@H]1CCCC[C@H]1NC(=O)c1cc2c(F)cc(F)cc2[nH]1` [Example 4BA, 4,6-Difluoro-N-((1R,2S)-2-methylcyclohexyl)-1H-indole-2-carboxamide], the MIC50 was 0.28 µM (≈ 0.0819 µg/mL).
For `C[C@H]1CC[C@@H](NC(=O)c2cc3c(C#N)cc(C#N)cc3[nH]2)CC1` [Example 4AW, 4,6-Dicyano-N-(cis-4-methyl-cyclohexyl)-1H-indole-2-carboxamide], the MIC50 was over 20 µM.
For `Cc1cc(C)c2cc(C(=O)NC3CCCCC3C)[nH]c2c1` (centres unmarked) [Example 3H, 4,6-Dimethyl-N-(2-methylcyclohexyl)-1H-indole-2-carboxamide], the MIC50 was 0.32 µM (≈ 0.091 µg/mL).
With `C[C@H]1CC[C@H](NC(=O)c2cc3c(F)cc(F)cc3[nH]2)CC1` [Example 4AU, 4,6-Difluoro-N-(trans-4-methylcyclohexyl)-1H-indole-2-carboxamide] the MIC50 was 0.56 µM (≈ 0.164 µg/mL).
In the case of `CCC(CC)NC(=O)c1cc2c(C)cc(C)cc2[nH]1` [Example 3F, 4,6-Dimethyl-N-(pentan-3-yl)-1H-indole-2-carboxamide], the MIC50 is reported as 4.33 µM (≈ 1.12 µg/mL).
Compound `CC1CCC(NC(=O)c2cc3c(F)cc(Cl)cc3[nH]2)CC1` (centres unmarked) [Example 4AS, 6-Chloro-4-fluoro-N-(4-methylcyclohexyl)-1H-indole-2-carboxamide] has an MIC50 of 0.23 µM (≈ 0.071 µg/mL).
`Cc1cc(C)c2cc(C(=O)NCC3CCCCC3)[nH]c2c1` [Example 3N, N-(Cyclohexylmethyl)-4,6-dimethyl-1H-indole-2-carboxamide] was tested, and the MIC50 was 0.87 µM (≈ 0.247 µg/mL).
For `CC1(C)CCC(NC(=O)c2cc3c(Cl)cc(Cl)cc3[nH]2)CC1` [Example 1A, 4,6-dichloro-N-(4,4-dimethylcyclohexyl)-1H-indole-2-carboxamide], the MIC50 was 0.015 µM (≈ 0.00509 µg/mL).
`Cc1cc(Br)c2cc(C(=O)N[C@@H]3CCCC[C@@H]3C)[nH]c2c1` [Example 4AI, 4-Bromo-6-methyl-N-((1R,2S)-2-methylcyclohexyl)-1H-indole-2-carboxamide] showed an MIC50 of 0.06 µM (≈ 0.021 µg/mL).
`COc1cccc2[nH]c(C(=O)N[C@@H]3CCCC[C@@H]3C)cc12` [Example 4AL, 4-Methoxy-N-((1R,2S)-2-methylcyclohexyl)-1H-indole-2-carboxamide] showed an MIC50 of 1.59 µM (≈ 0.455 µg/mL).
In the case of `Cc1cc(Br)cc2[nH]c(C(=O)N[C@@H]3CCCC[C@@H]3C)cc12` [Example 4AH, 6-Bromo-4-methyl-N-((1R,2S)-2-methylcyclohexyl)-1H-indole-2-carboxamide], the MIC50 is reported as 0.01 µM (≈ 0.00349 µg/mL).
`CC1CCC(NC(=O)c2cc3c(Cl)cc(F)cc3[nH]2)CC1` (centres unmarked) [Example 4AT, 4-Chloro-6-fluoro-N-(4-methylcyclohexyl)-1H-indole-2-carboxamide] showed an MIC50 of 0.165 µM (≈ 0.0509 µg/mL).
For `Cc1cc(C)c2cc(C(=O)Nc3ccc(F)cc3)[nH]c2c1` [Example 3C, N-(4-Fluorophenyl)-4,6-dimethyl-1H-indole-2-carboxamide], the MIC50 was 2.45 µM (≈ 0.692 µg/mL).
Work on `Cc1cc(C)c2cc(C(=O)N[C@@H]3CCCC[C@@H]3C)[nH]c2c1` [Example 4A, 4,6-Dimethyl-N-((1R,2S)-2-methylcyclohexyl)-1H-indole-2-carboxamide] yielded an MIC50 of 0.07 µM (≈ 0.0199 µg/mL).
With `O=C(NC1CCCCC1)c1cc2c(F)cc(F)cc2[nH]1` [Example 4BB, N-Cyclohexyl-4,6-difluoro-1H-indole-2-carboxamide] the MIC50 was over 20 µM.
Work on `Cc1cc(C)c2cc(C(=O)NC3CCCCC3O)[nH]c2c1` (centres unmarked) [Example 4L, N-(2-Hydroxycyclohexyl)-4,6-dimethyl-1H-indole-2-carboxamide] yielded an MIC50 of 2.92 µM (≈ 0.837 µg/mL).
`CC1CCC(NC(=O)c2cc3ccc(Cl)c(Cl)c3[nH]2)CC1` (centres unmarked) [Example 4W, 6,7-Dichloro-N-(4-methylcyclohexyl)-1H-indole-2-carboxamide] showed an MIC50 of 0.72 µM (≈ 0.234 µg/mL).
For `CC1CCC(NC(=O)c2cc3cccc(Cl)c3[nH]2)CC1` (centres unmarked) [Example 4X, 7-Chloro-N-(4-methylcyclohexyl)-1H-indole-2-carboxamide], the MIC50 was 0.9 µM (≈ 0.262 µg/mL).
With `Cc1cccc2[nH]c(C(=O)N[C@@H]3CCCC[C@@H]3C)cc12` [Example 4AA, 4-Methyl-N-((1R,2S)-2-methylcyclohexyl)-1H-indole-2-carboxamide] the MIC50 was 0.25 µM (≈ 0.0676 µg/mL).
For `COc1cc(OC)c2cc(C(=O)N[C@@H]3CCCC[C@@H]3C)[nH]c2c1` [Example 4AO, 4,6-Dimethoxy-N-((1R,2S)-2-methylcyclohexyl)-1H-indole-2-carboxamide], the MIC50 was 1.46 µM (≈ 0.462 µg/mL).
Compound `O=C(NC1CCC(CO)CC1)c1cc2c(Cl)cc(Cl)cc2[nH]1` (centres unmarked) [Example 4AX, 4,6-Dichloro-N-(4-(hydroxymethyl)-cyclohexyl)-1H-indole-2-carboxamide] has an MIC50 of 13.5 µM (≈ 4.6 µg/mL).
`COCC1CCC(NC(=O)c2cc3c(Cl)cc(Cl)cc3[nH]2)CC1` (centres unmarked) [Example 8A, 4,6-Dichloro-N-(4-(methoxymethyl)cyclohexyl)-1H-indole-2-carboxamide] showed an MIC50 of 1.51 µM (≈ 0.536 µg/mL).
`Cc1cc(C)c2cc(C(=O)Nc3ccccc3C)[nH]c2c1` [Example 3L, 4,6-Dimethyl-N-(o-tolyl)-1H-indole-2-carboxamide] was tested, and the MIC50 was 3.12 µM (≈ 0.868 µg/mL).
Compound `C[C@H]1CCCC[C@H]1NC(=O)c1cc2c(Br)cccc2[nH]1` [Example 4AB, 4-Bromo-N-((1R,2S)-2-methylcyclohexyl)-1H-indole-2-carboxamide] has an MIC50 of 0.29 µM (≈ 0.0972 µg/mL).
